Data set [1] relates to anaesthetised minipigs. In words: Peripheral arterial blood pressure in anaesthetised minipigs after topical administration to the anoderm. Type of data set: in vivo, Göttingen-minipigs. The settings on record: 0.5 ml of 0.3%, 1%, 3% gels. On the procedure:
The test substances were administered topically to the anoderm using a volume of 0.5 ml/animal. The interval between each observation period was 20 minutes. The administration was performed employing a 1 ml syringe inserted approximately 1 cm into the anal canal. The test substances were administered slowly while the syringe was rotated. After the preparation and a period of at least 15 minutes for stabilisation of the circulatory functions, the animals were treated with the placebo or the selected dose levels of the test substance by administration to the anoderm.
An intraarterial indwelling catheter (size 0.8×1.4 mm, B. Braun Melsungen AG, D-34212 Melsungen, Germany) was connected to a pressure transducer (DTX, Pfrimmer-Viggo, Erlangen, Germany) recording the systolic and diastolic arterial blood pressure in the right or left a. femoralis. The signal was boosed by a Hellige Servomed SMV 178 T amplifier (Hellige GmbH, D-79100 Freiburg, Germany). The blood pressure was recorded and monitored with a Hellige Cardiognost EK 512 P (paper speed: 2.5 mm/sec). Systolic and diastolic blood pressure [mmHg] were determined and the mean pressure was calculated according to the following formula: Mean blood pressure [mmHg]=(systolic pressure+(2×diastolic pressure))/3 Heart Rate and Electrocardiography […]

Data set [2] has as its system anaesthetised minipigs. In words: Reactivity of the circulatory functions to arterenol or isoproterenol. Type of data set: in vivo, Göttingen-minipigs. To be noted: any of the gels. On the procedure:
Before the first administration and at further suitable times after the administration, isoproterenol was administered intravenously for control purposes. Arterenol (norephinephrine hydrochloride, also known as L-noradrenaline) was administered for control purposes at the end of the study only after completing the collection of the blood samples for toxicokinetics.

For data set [3], the system named is pig internal anal sphincter muscle. In words: In vitro contraction of internal anal sphincter muscle strips in superfusion organ bath. The settings on record: for EC50: Sus scrofa, pig IAS strips. Type of data set: cell-based. On the procedure: Tissue was obtained from female Large White pigs from a local abattoir. Pieces of internal anal sphincter muscle were cut and the tissue was transferred immediately to Krebs solution at 4° C. (120 mM NaCl, 5.9 mM KCl, 15.4 mM Na2HCO3, 1.2 mM NaH2PO4, 2.5 mM CaCl2, 1.2 mM MgCl2, 11.5 mM glucose, equilibrated with 97% oxygen and 3% carbon dioxide to maintain the pH at 7.4±0.05). The epithelium of the anal canal was removed along with the submucosa. Strips of the internal anal sphincter (IAS) were cut, each measuring approximately 1×1×7 mm, weighing 2 mg to 8 mg and containing parallel muscle bundles. Fine 5-0 silk ligatures were tied to each end and the strips mounted for isometric tension recording in superfusion organ baths (capacity 0.2 ml)^19 as shown in FIG. 1. The muscle strip 1 is held by a thread 2 to secure it in position within the Perspex jacket 3. The strips were perfused continuously with Krebs solution (37° C.) at a rate of 1 ml/min introduced via an inflow 4 and exiting via an overflow 5. This apparatus allows six strips to be studied simultaneously. The strips were initially loaded with 1 g tension and allowed to equilibrate for at least 90 minutes. Tension was measured by Pioden dynamometer UF1 transducer (Pioden Controls, Canterbury, UK) involving a tension transducer 6 and ring electrodes 7 and 7a, and recorded both on a six channel Tekman 900 pen recorder (Tekman Electronics, Learnington Spa, UK) and using Chart v3.6 and MacLab Data Acquisition System (AD Instruments, Australia).
Phenylephrine (Sigma Chemical Co., Poole, UK), methoxamine racemate and the four methoxamine isomers were dissolved in Krebs solution and tested for their effect on IAS tone. Methoxamine racemate, that is to say, an equimolar mixture of the four isomers, was produced by Prosyth Limited, Acton, Sudbury, Suffolk. The four isomers (called peaks 1 to 4), were separated as described in Example 3. Peak 2 is 1R,2S-methoxamine. The 1R,2S isomer was also synthesised as described in Example 4. It has been confirmed by crystallography that peak 2 is 1R,2S-methoxamine.
IAS strips developed intrinsic tone during the equilibrium period. After equilibration increasing concentrations of each of the test compounds were added for 20 second periods, with intervening washout periods of at least ten minutes, until the tone had returned to baseline.
Results are expressed as mean (standard error of the mean) and the number of surgical specimens from which these strips were derived. A maximum of six strips were used from each pig for each test compound.
Test compound-induced increases in tone were calculated by taking the peak tone after application of the test compound and […]. This figure was then expressed as a percentage of maximal increase in tone seen across the dose range used (10^−2M to 10^−8M). All analysis was performed using Chart v3.6 software.
EC50 values were calculated by plotting concentration-response curves for each muscle strip. The dose causing 50% of maximal contraction was calculated by linear regression. EC50 values for different drugs were compared using a two-tailed t-test, assuming unequal variance and with p<0.05 considered significant.

Where two headings read alike, the source gives them in different places.

The values that follow come from patent US8613948B2, “Treatment of faecal incontinence and other conditions with 1R, 2S-methoxamine” (Norgine BV, priority 2001, dated 2013).

As a reminder, the EC50 is the concentration at which the effect is half-maximal. In the case of `COc1ccc(OC)c([C@@H](O)C(C)N)c1` (single isomer, unassigned) [1R,2S-methoxamine], in the data set with anaesthetised minipigs [1], the “systolic, diastolic or mean blood pressure” value is listed as “not influenced”. In the data set on anaesthetised minipigs [2], the “expected reactions to arterenol or isoproterenol” value is “not influenced”. For the same compound, the EC50 in data set [3] (chemically synthesised 1R,2S isomer, read-out: EC50) came out at 10.5 µM; in data set [3] (Table 1, read-out: EC50 value μM (±SE)), 17.6 µM. Further, the “contraction of smooth muscle strips from the IAS” value in data set [3] (dose range 10^−2M to 10^−8M) is “caused dose dependent contraction”. Moreover, in data set [3] (in vitro), the “potency at inducing contraction of internal anal sphincter muscle in vitro relative to phenylephrine” value was “at least four times more potent”. Also, in data set [3] (racemate = equimolar mixture of all four isomers), the “potency relative to methoxamine racemate” value is “at least four times the potency”.
